This note sets out measurements from patent publication US9453014B2, “Cyclic amide derivatives as inhibitors of 11-β-hydroxysteroid dehydrogenase and uses thereof” (CONNEXIOS LIFE SCIENCES PVT. LTD., priority 2011, dated 2016).

The structures appear in SMILES notation.

What is called IC50 is the concentration that gives 50% inhibition.

T1 sequence (P28845 whole entry): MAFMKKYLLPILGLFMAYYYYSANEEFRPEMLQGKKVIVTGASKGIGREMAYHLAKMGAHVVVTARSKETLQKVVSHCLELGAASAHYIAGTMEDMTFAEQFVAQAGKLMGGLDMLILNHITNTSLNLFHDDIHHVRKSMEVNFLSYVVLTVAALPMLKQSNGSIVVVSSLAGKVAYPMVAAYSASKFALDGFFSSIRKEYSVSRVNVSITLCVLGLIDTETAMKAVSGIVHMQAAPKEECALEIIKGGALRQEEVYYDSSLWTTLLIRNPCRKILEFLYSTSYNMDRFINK

This test concerns the target T1, human full length HSD11 β 1 (Homo sapiens, UniProt P28845).
T1 construct: transient expression of human full length HSD11 β 1 expression vector; host or cells: CHO cells (transient transfection)
The test can be described thus: In Vitro HSD11β1 Inhibition Assay. As to conditions: CHO cells transiently expressing human HSD11β1; 200 nM cortisone+500 uM NADPH overnight; cortisone to cortisol by LC/MS-MS; read-out: 11βHSD1 (IC50). In kind it is cell-based. As to the method:
In Vitro HSD11β1 Inhibition Assay:
CHO cells were maintained in Dulbecco's modified Eagle's medium/nutrient mixture F-12 containing 5% fetal bovine serum (v/v) and 2 mM glutamine. Cells were cultured at 37° C. with 5% CO2. For transient expression of human full length HSD11 β 1 expression vector (OriGene Technologies), cells were seeded at a density of 2×10^5 cells/well in a 6-well plate. Transfection was done using Turbofectin8 reagent (OriGene Technologies), according to the protocol provided with the reagent. After 24 hours post-transfection, cells were trypsinized and pooled together before they were re-seeding to 96-well plate at a density of 40000 cells/well. 24 hours after re-seeding, cells were incubated with 200 nM cortisone+500 uM NADPH (or along with small molecule inhibitors) overnight. The enzymatic activity or inhibition of enzyme activity was measured by estimating the conversion of cortisone to cortisol by LC/MS-MS method. The IC50 in nM was calculated from an 8 point log scale of concentration versus inhibition.
`O=C1CCN(C(=O)CCc2c[nH]c3cc(F)ccc23)C2CCCCC12` (stereo not shown) [Compound 43, 1-[3-(6-fluoro-1H-indol-3-yl)propanoyl]octahydroquinolin-4(1H)-one]: the IC50 was more than 250 nM.

For the compound `O=C(O)C1CCCC2C1CCCN2C(=O)CSc1c[nH]c2cccc(C3CC3)c12` (stereo not shown) [Compound 260, 1-{[(4-cyclopropyl-1H-indol-3-yl)sulfanyl]acetyl}decahydroquinoline-5-carboxylic acid], the concentration for half-maximal inhibition (IC50) was more than 250 nM.

With `Cc1cccc2[nH]cc(C(C)CC(=O)N3CCCC4(C#N)CCCCC34)c12` (stereo not shown) [Example 149, 1-[3-(4-methyl-1H-indol-3-yl)butanoyl]octahydroquinoline-4a(2H)-carbonitrile], the IC50 is more than 250 nM.

`Cc1cccc2[nH]cc(C(C)CC(=O)N3CCCC4(O)CCCCC34)c12` (stereo not shown) [Example 132, 1-(4a-hydroxyoctahydroquinolin-1(2H)-yl)-3-(4-methyl-1H-indol-3-yl)butan-1-one]: the IC50 lay in the range of 150 to 200 nM.

`CC(CC(=O)N1CCCC2CCCCC21)c1c[nH]c2cccc(F)c12` (stereo not shown) [Example 121, 3-(4-fluoro-1H-indol-3-yl)-1-(octahydroquinolin-1(2H)-yl)butan-1-one]: the IC50 was less than 100 nM.

`CC(CC(=O)N1CCCC2(c3ccccc3)CCCCC12)c1c[nH]c2cccc(Cl)c12` (stereo not shown) [Example 128, 3-(4-chloro-1H-indol-3-yl)-1-(4a-phenyloctahydroquinolin-1(2H)-yl)butan-1-one]: the IC50 is more than 250 nM.

As to `CC(CC(=O)N1CCCC2(C)CCCCC12)c1cn(C)c2ccccc12` (stereo not shown) [Example 113, 3-(1-methyl-1H-Indol-3-yl)-1-(4a-methyloctahydroquinolin-1(2H)-yl)butan-1-one], the IC50 was more than 250 nM.

`CC(CC(=O)N1CCCC2C(C(=O)O)CCCC21)c1cn(C)c2cccc(Cl)c12` (stereo not shown) [Compound 209, 1-[3-(4-chloro-1-methyl-1H-indol-3-yl)butanoyl]decahydroquinoline-5-carboxylic acid]: the IC50 lay within 150 to 200 nM.

For the compound `O=C(Cc1c[nH]c2ccccc12)N1CCCC2CCCCC21` (stereo not shown) [Compound 9, 2-(1H-indol-3-yl)-1-(octahydroquinolin-1(2H)-yl)ethanone], the IC50 was in the range of 200 to 250 nM.

`CC(CC(=O)N1CCCC2C(C(=O)O)CCCC21)c1cn(C)c2cccc(-c3ccco3)c12` (stereo not shown) [Compound 216, 1-{3-[4-(furan-2-yl)-1-methyl-1H-indol-3-yl]butanoyl}decahydroquinoline-5-carboxylic acid]: the IC50 is less than 100 nM.

`CC(CC(=O)N1CCC(C(=O)O)C2CCCCC21)c1c[nH]c2cccc(Cl)c12` (stereo not shown) [Example 158, 1-[3-(4-chloro-1H-indol-3-yl)butanoyl]decahydroquinoline-4-carboxylic acid]: the IC50 was more than 250 nM.

As to `CC(CC(=O)N1CCO[C@H]2CCCCC21)c1c[nH]c2cccc(F)c12` (single isomer, unassigned) [Example 139, 3-(4-fluoro-1H-indol-3-yl)-1-[cis-(4a,8a)-octahydro-4H-1,4-benzoxazin-4-yl]butan-1-one], the IC50 was 100 to 150 nM.

For `O=C(O)C1CCN(C(=O)CC(c2ccccc2)c2c[nH]c3cccc(F)c23)C2CCCCC12` (single isomer, unassigned) [Example 162, 1-[3-(4-fluoro-1H-indol-3-yl)-3-phenylpropanoyl]decahydroquinoline-4-carboxylic acid], the half-maximal inhibitory concentration (IC50) was more than 250 nM.

Consider `CC(CC(=O)N1CCCC2C(C(=O)O)CCCC21)c1c[nH]c2cccc(-c3cccn3C)c12` (stereo not shown) [Compound 244, 1-{3-[4-(1-methyl-1H-pyrrol-2-yl)-1H-indol-3-yl]butanoyl}decahydroquinoline-5-carboxylic acid], for which the IC50 is more than 250 nM.

For `O=C1CCN(C(=O)CCc2c[nH]c3ccccc23)C2CCCCC12` (stereo not shown) [Compound 26, 1-[3-(1H-indol-3-yl)propanoyl]octahydroquinolin-4(1H)-one], the half-inhibitory concentration (IC50) was more than 250 nM.

As to `CC(CC(=O)N1CCCC2(CO)CCCCC12)c1c[nH]c2ncccc12` (stereo not shown) [Example 146, 1-[4a-(hydroxymethyl)octahydroquinolin-1(2H)-yl]-3-(1H-pyrrolo[2,3-b]pyridin-3-yl)butan-1-one], the IC50 is more than 250 nM.
